# Source: paper PMC6097915 (ACS chemical biology, 2018)
# Ends that are not written are not given here.
# Test system: WT MG1655 E. coli
# Assay type: cell-based
# Settings: 6-hr period, aerated EZRDM medium, 30°C, by OD, successive two-fold dilutions in 96 well plates
row,Molecule,MIC (minimum inhibitory concentration) [µM]
1,KWKLFKKIEKVGQNIRDGII-KAGPAVAVVGQATQIAK-NH2 [Cecropin A],0.9
2,CC[C@H](C)[C@H](NC(=O)[C@H](CCCCN)NC(=O)[C@H](CCC(=O)O)NC(=O)[C@H](CCCCN)NC(=O)[C@H](CO)NC(=O)[C@H](CCCCN)NC(=O)[C@H](CCCNC(=N)N)NC(=O)[C@H](Cc1ccccc1)NC(=O)[C@H](Cc1ccccc1)NC(=O)[C@H](CC(=O)O)NC(=O)CNC(=O)[C@H](CC(C)C)NC(=O)[C@@H](N)CC(C)C)C(=O)NCC(=O)N[C@@H](CCCCN)C(=O)N[C@@H](CCC(=O)O)C(=O)N[C@@H](Cc1ccccc1)C(=O)N[C@@H](CCCCN)C(=O)N[C@@H](CCCNC(=N)N)C(=O)N[C@H](C(=O)N[C@H](C(=O)N[C@@H](CCC(N)=O)C(=O)N[C@@H](CCCNC(=N)N)C(=O)N[C@H](C(=O)N[C@@H](CCCCN)C(=O)N[C@@H](CC(=O)O)C(=O)N[C@@H](Cc1ccccc1)C(=O)N[C@@H](CC(C)C)C(=O)N[C@@H](CCCNC(=N)N)C(=O)N[C@@H](CC(N)=O)C(=O)N[C@@H](CC(C)C)C(=O)N[C@H](C(=O)N1CCC[C@H]1C(=O)N[C@@H](CCCNC(=N)N)C(=O)N[C@H](C(=O)N[C@@H](CCC(=O)O)C(=O)N[C@@H](CO)C(=O)O)[C@@H](C)O)C(C)C)[C@@H](C)CC)C(C)C)[C@@H](C)CC [LL-37],4
3,KWKLFKKIGAVLKVL-NH2 [CM15],5
